Results from patent US20100047231A1, “Immuno-Stimulant Combination for Prophylaxis and Treatment of Hepatitis C” (priority 2005, published 2010).

Key:
Format in all cases: in vivo
HHD mice [1] = assay: Lythic activity of CTL (chromium release) of splenocytes from immunised HHD mice against peptide-loaded T2 target cells; details: 100 μg NS3 + poly(I:C) + anti-CD40, two immunisations, sixty days after the second (FIG. 5B)
Protocol: (§1) Groups of two mice were immunised via the i.p. route with 50 μg of anti-CD40. Four hours later, they were injected with 50 μg of poly(I:C) (i.v.) and different amounts of the antigens: NS3 protein or mixtures of NS3 with peptides (i.p.).
(§2) In order to measure the CTL responses, the splenocytes coming from the immunised animals were incubated with peptides (10 μM) for 2 h at 37° C., washed twice and cultured on 24-well plates with a confluence of 7.5×10^6 cells/well. In experiments conducted for measuring the recognition of T1/HCVcon cells, 7.5×10^6 splenocytes of HHD mice were cultured with 7.5×10^5 T1/HCVcon cells previously treated with Mitomycin C (Sigma). In all cases, two days later, 2.5 U/ml of IL-2 (Boehringer-Mannheim GmbH, Germany) was added to the wells and 5 days later the cells were recovered in order to carry out chromium release assays.
(§3) The lythic activity was measured by incubating different quantities of effector cells for 4 h with 3000 T2 target cells previously loaded with 51Cr, with and without peptide (target). […]
(§4) The specific lysis percentage was calculated according to the formula: […]
(§5) where the spontaneous lysis (measured as cpmspontaneous) corresponds to target cells incubated in the absence of effector cells, and the maximum lysis (cpmmaximum) is obtained by incubating target cells with 5% Tritonx100.

HHD mice [2] = assay: IFN-γ production (ELISA) by splenocytes from immunised HHD mice stimulated with peptides or NS3; details: 100 μg NS3 + poly(I:C) + anti-CD40, two immunisations, sixty days after the second
Protocol: as §1
Splenic cells were resuspended in complete medium and plated at 8×10^5 cells/well in 0.2 ml on 96-well plates with U-shaped bottom, in the absence or presence of peptides or of the recombinant NS3 protein of the HCV.
Two days afterwards, the supernatants were collected for measuring the presence of IFN-γ by means of ELISA (BD-Pharmingen), following the manufacturer's instructions.

T1/HCVcon cells = assay: Lythic activity of splenocytes from immunised HHD mice against T1/HCVcon cells (chromium release); details: 100 μg NS3 + poly(I:C) + anti-CD40, six days after immunisation, splenocytes stimulated five days with T1/HCVcon cells and IL-2 (FIG. 4)
Protocol: as §1, §2, §3, §4, §5

With “NS3 protein (SEQ. ID. NO: 2): Recombinant polypeptide with 635-amino-acid complete HCV NS3 sequence and His tail, expressed in E. coli; given with poly(I:C) and anti-CD40” as the substance, how does the “Lasting CD8+ response, lythic activity against target cells loaded with peptide 1073” value (HHD mice [1]) read?
Its value is “capable of lysing target cells pulsed with the peptide 1073”.

What about the “Lasting CD4+ response, IFN-γ production on stimulation with NS3 protein” value (HHD mice [2]; NS3 1 μg/ml, 48 h (FIG. 5C)) of the same substance?
Its value is “potent and lasting CD4+ responses”.

What about the “Lasting CD8+ response, production of IFN-γ on stimulation with peptide 1073” value (HHD mice [2]; peptide 1073 10 μM, 48 h (FIG. 5A)) of the same substance?
The value was “capable of producing large amounts of IFN-γ”.

What about the “Lysis of T1/HCVcon cells versus T1 control cells” value (T1/HCVcon cells) of the same substance?
The value was “greater capacity to lyse T1 cells, which expressed proteins of the HCV”.
